The text below walks through data of US20220313677A1, “METHODS FOR TREATING LIVER DISORDERS USING FXR AGONISTS” (Novartis AG, priority 2016, published 2022).

Converted amounts (≈) assume the structure as drawn. “Also recorded” adds a separate entry of the source. A value given as a limit tells only on which side of the number the result lay.

The subject of data set [1] is FGF15. In words: Serum FGF15 (MSD assay) in chronic treatment rat ANIT model. It counts as in vivo. The protocol:
Serum FGF15 levels were quantified using an FGF15 Meso Scale Discovery (MSD) assay. Mouse FGF15 antibody from R&D Systems (AF6755) was used both as capture and detection antibody in the assay. MSD SULFO-TAG NHS-Ester was used to label the FGF15 antibody. MSD standard 96-well plates were coated with the FGF15 capture antibody and the plates were blocked with MSD Blocker A (R93AA-2). After washing the plate with PBS+0.05% Tween 20, MSD diluent 4 was dispensed into each well and incubated for 30 min. 25 μl of calibrator dilutions or samples (serum or EDTA plasma) were dispensed into each well and incubated with shaking at RT. After washing, detection antibody was added and incubated with shaking for 1 h at RT. After washing and the addition of MSD Read buffer (R92TC-2), the plate was read on an MSD SECTOR Imager 6000. Plots of the standard curve and unknown samples were calculated using MSD data analysis software.
Activation of FXR in the ileum induces the expression of fibroblast growth factor 15 (FGF15 in rodent; FGF19 in human), a hormone that is secreted in the portal blood and signals to the liver to repress Cyp7a1 expression synergistically with SHP. The direct FXR-dependent induction of FGF15/19 along with FGF15/19's anti-cholestatic properties makes it a convenient serum biomarker for detecting target engagement of FXR agonists.

Data set [2] is described as follows: Multiple oral dose plasma pharmacokinetics in healthy subjects.
The subject of data set [3] is rat ANIT-induced cholestasis model. Put plainly: Chronic treatment rat ANIT model: serum markers of cholestasis and liver damage. The format is in vivo. As to conditions: 14 days oral dosing; AST, ALT, bilirubin, bile acids in serum. The procedure:
Rats were treated with alpha-naphthyl-isothiocyanate (ANIT) (0.1% w/w) in food for 3 days prior to treatment with the compound at the indicated doses or with vehicle control (“Veh”). A non-cholestatic control group was fed standard chow diet without ANIT, and serve as the non-cholestatic control animals (“Control”). After 14 days of oral dosing, the indicated analyte was measured in serum. LLQ, lower limit of quantitation. Mean±SEM; n=5.
(§1) Male Wistar rats were treated with ANIT (0.1% ANIT in chow diet) for 2 weeks. […] The serum samples were collected on day 14 for analysis of biomarkers of hepatobiliary injury (including ALT, AST, bilirubin and bile acids). The PK samples (pre-dose, 0.5, 1, 3, 7, 10 and 24 h, n=3/dose group) were taken on day 13 (at steady-state).

Data set [4] concerns FGR5. In words: FGR5 effects.
Data set [5] can be described thus: Safety and tolerability in clinical study. The format is in vivo, human. The text has this: Elevated ALT resolved to within normal levels within 14 days and without intervention.
Data set [6] in a line: Single oral dose plasma pharmacokinetics in healthy subjects. It counts as in vivo, human. The following applies: fasted, mean.
Data set [7] can be described thus: Estimation of human efficacious dose from rat efficacious exposure and human PK. It counts as in vivo. The following applies: human, plasma, oral; at dose of ~6 μg; read-out: Cmax at estimated human efficacious dose. The protocol: The human efficacy dose was calculated based on the efficacious exposure in the rat ANIT-induced disease model. Since the in vitro potency and protein binding between human and rat were similar, the EC80 exposure in human was assumed to be the same as that in rat (3.05 ng*h/mL).

Data set [8] concerns FGF19.
Data set [9] concerns rat ANIT-induced cholestasis model. In words: PK/PD modeling of effective exposure in rat ANIT model. The format is in vivo. As to conditions: for IC80 (total bilirubin): 2-week rat ANIT chronic treatment model, serum total bilirubin, Inhibitory effect Imax model. The procedure: as §1
The mean biomarker data were compared to the PK data (average concentration at each dose) for the modeling. The IC80 was determined using the Inhibitory effect Imax model (effect C=0 at Imax, C=infinity at E0) built in Phoenix WinNonlin 6.3 software. […] Therefore, we chose to use a mean of the IC80 for the four biomarkers (total bilirubin, total bile acids, ALT and AST) as the IC80 for efficacy in this model. From these studies, the IC80 of LJN452 was 0.127 ng/ml and the corresponding AUCO-24h was 3.05 ng*h/ml (Table 1), and the corresponding efficacious dose is approximately 0.01 mg/kg (based on Table 1 and Table 2).
The PK samples (pre-dose, 0.5, 1, 3, 7, 10 and 24 h, n=3/dose group) were taken on day 13 (at steady-state). AUCO-24h was determined using Phoenix WinNonlin 6.3 software and the average concentrations were calculated from mean of AUCO-24h at each dose (divided the AUCO-24h by 24 h). The individual biomarker data were compared to the PK data (average concentration at each dose) for the modeling. Since the lowest dose (0.01 mg/kg) already approached maximal efficacy, the IC80 was chosen as the measurement of the efficacious exposure (Table 1). The IC80 was determined using the Inhibitory effect Imax model (effect C=0 at Imax, C=infinity at E0) built in Phoenix WinNonlin 6.3 software.

The conditions of data set [10]: clinical studies; cited from earlier work.
[11] abbreviates: exposures for doses 10-100 μg normalized to 10 μg.
Setting [12] is: maximal drug effect, rat ANIT model.

The Cmax is the maximum level reached in the sampled fluid or tissue. In the case of `O=C(O)c1cc(F)c2nc(N3C4CC[C@H]3CC(OCc3c(-c5ccccc5OC(F)(F)F)noc3C3CC3)C4)sc2c1` (stereo partly drawn) [Compound A, 2-[(1R,3r,5S)-3-({5-cyclopropyl-3-[2-(trifluoromethoxy)phenyl]-1,2-oxazol-4-yl}methoxy)-8-azabicyclo[3.2.1]octan-8-yl]-4-fluoro-1,3-benzothiazole-6-carboxylic acid], in [1], the “serum FGF15” value is listed as “stimulated serum FGF15 expression; also recorded: Significant dose-dependent induction”. Also, in data set [2] (setting [11]), the “average AUCtau at day 13 for a dose level of 10 μg” value turned out to be 4.84 ng·h/mL and the “average Cmax at day 13 for a dose level of 10 μg” value worked out at 0.32 ng/mL. In addition, in data set [2] (once daily dosing, dose range 10 μg to 100 μg), the “dose proportionality of exposure (Cmax and AUC)” value is reported as “approximately dose-proportional increase; also recorded: approximately dose proportional increase”. For the same compound, in [2] (once daily oral dosing, trough levels), the “time by which steady-state was reached” value was not above 4 days. In [3], the “dose from which hepatobiliary injury indicators improved” value is recorded as not below 0.01 mg/kg. The FGR5 effects entry in data set [4] is listed as “no FGR5 effects”. Further, the “ALP or bilirubin elevation” value in data set [5] (100 μg repeated daily) is listed as “no elevation”. Moreover, the “findings in physical exam, vital signs or ECGs” value in data set [5] (clinical study) is on record as “No significant findings”. Also, in data set [5] (doses up to and including 60 μg), the “tolerability in repeated daily administration” value is recorded as “well tolerated”. For the same compound, in [6] (single dose 10 μg), the AUCinf turned out to be 3.39 ng·h/mL, the AUClast is 2.79 ng·h/mL, the Cmax is listed as 0.186 ng/mL and the T½ is recorded as 14.9 h. In data set [6] (single dose 30 μg), this compound displayed an AUCinf of 13.4 ng·h/mL, an AUClast of 12.7 ng·h/mL, a Cmax of 0.627 ng/mL and a T½ of 13.7 h. In data set [6] (single dose 100 μg), this compound had an AUCinf of 37.9 ng·h/mL, an AUClast of 34.8 ng·h/mL, a peak concentration (Cmax) of 1.73 ng/mL and a T½ of 13.5 h. Also, in data set [6] (single dose 300 μg), the AUCinf turned out to be 123 ng·h/mL, the AUClast came to 119 ng·h/mL, the Cmax worked out at 6.41 ng/mL and the T½ turned out to be 15.3 h. Also, in data set [6] (single dose 1000 μg), the AUCinf came to 482 ng·h/mL, the AUClast was 416 ng·h/mL, the Cmax was 22.1 ng/mL and the T½ came out at 21.9 h. In [6] (single dose 3000 μg), the AUCinf came to 933 ng·h/mL, the AUClast is 888 ng·h/mL, the peak concentration (Cmax) was determined as 54.2 ng/mL and the T½ was determined as 16.5 h. Further, the Cmax in data set [7] is approximately 0.2 ng/mL. In addition, the FGF19 elevations result in [8] (30 μg/day) is “consistent with pharmacological activity in NASH”. Also, the FGF19 dose dependence entry in data set [8] (single dose studies 10 μg to 1 mg) is reported as “Dose-dependent increases”. Further, the “IC80 (total bilirubin)” value in data set [9] was 0.223 ng/mL (≈ 0.369 nM). In data set [9] (listed as LJN452), the “IC80 (total bilirubin)” value was 8.223 ng/mL (≈ 13.6 nM). Moreover, in data set [9] (setting [12]), the “Imax (ALT)” value is given as 84.2 U/L, the “Imax (AST)” value worked out at 140.3 U/L, the “Imax (total bile acids)” value amounted to 125.5 µmol/L and the “Imax (total bilirubin)” value turned out to be 2.0 mg/dL.

On to `CC[C@H]1[C@@H](O)[C@@H]2[C@H](CC[C@]3(C)[C@@H]([C@H](C)CCC(=O)O)CC[C@@H]23)[C@@]2(C)CC[C@@H](O)C[C@@H]12` [OCA, 6α-ethyl-chenodeoxycholic acid], for which the pruritus result in [10] is “increased pruritus”.
